# Patent US20090232909A1, “Method for determining physiological effects of hemoglobin” (priority 1999, published 2009)
# Key:
# myoglobin = conditions: cited from earlier work
# Hb [1] = target: T1, Hb (Homo sapiens, UniProt P68871+P69905); conditions: cited from earlier work
# Hb [2] = target: T1, Hb; test: EPR of iron nitrosyl-Hb formed by limiting NO with variously oxygenated Hb; assay type: biochemical; set-up: purchased Apex Bioscience (Research Triangle Park, N.C.)
# Text: To investigate the reaction of NO with oxyHb, we begin by adopting the conventional viewpoint that: NO consumption involves a competition between the oxidation reaction (Eq. 1) and the adduct-forming addition reaction (Eq. 2); and that the specific rate constants for these reactions, namely kox and kadd, are independent of the degree of oxygen saturation (Y) of the hemes.
# [Fe(II)NO]/[NO]0=1−Y/[1−Y+κY] [4]
# HbA0 was obtained from Apex Bioscience (Research Triangle Park, N.C.). Buffer exchange was achieved by dialysis. Deoxygenation was performed by gas exchange with argon in a tonometer. NO was added from a stock solution prepared under ultrapure helium and purified across alkali and cold traps. Stock solutions of NO were prepared in phosphate buffered saline containing 100 μM DTPA, pH 7.4. NO injections were made via a gas tight Hamilton syringe with Teflon seal. The concentration of NO in stock solutions was assayed by electrode and by a Sievers 280 NO analyzer (Boulder Colo.).
# EPR spectroscopy was carried out with samples in 4-mm i.d. fused silica tubes, at 76° K, on a Varian E-9 spectrometer. UV-visible spectra were taken after NO addition. The sample was then placed in a deoxygenated EPR tube and plunged into liquid N2. EPR spectra of nitrosylHb or dinitrosyl iron complexes (DNICs) were recorded in a single 4-min. scan over 400 G on a Varian E-9 spectrometer operating at 9.274 GHz, with 10-mW microwave power, 10-20 G amplitude of field modulation at 100 kHz, and time constant of 0.250 sec. Spectra of high-spin metHb were recorded with a scan of 1000 G, 20 G modulation amplitude, time constant of 0.128 sec, under otherwise identical conditions. NitrosylHb was measured by double integration of EPR spectra and by comparison to EPR spectra of Hb(NO)4 standardized with UV-visible spectroscopy. The reproducibility of nitrosylHb measurements was estimated to be ±6% by repeated trials.
# (A) EPR spectra of iron-nitrosyl Hb derivatives formed by incubation of 19 μM NO with 393 μM Hb at various degrees of oxygen saturation in 10 mM phosphate buffer, pH 7.4. […]
compound,measurement,setting,value
"[N]=O [NO, nitric oxide]",rate of NO binding to ferrous myoglobin,myoglobin,2.5e+07 M⁻¹ s⁻¹
same,rate of NO oxidation of oxymyoglobin,myoglobin,3.4×10^7 M^−1 sect^−1
same,rate constant of NO-mediated oxidation of oxyHb to metHb,Hb [1],3.7e+07 M⁻¹ s⁻¹
same,rate constant of binding of NO to unoccupied hemes in Hb,Hb [1],2.6e+07 M⁻¹ s⁻¹
same,decrease of K over the 0 to 80% range of oxygen saturation,Hb [2]; 10 mM phosphate,7 fold
same,decrease of K by extrapolation,"Hb [2]; 10 mM phosphate, at 90% saturation",100 fold
same,K (κ = kox/kadd) from fit of Eq. 4,"Hb [2]; 100 mM phosphate, pH 7.4, average of the two curves",1.40±0.06
